{
  "source": "patent US6596297B2",
  "about": "“Biodegradable microbicidal vaginal barrier device” (New York Blood Center, Inc., priority 2002, dated 2003)",
  "origin": "cited, not measured here",
  "system": "HIV-1",
  "data": [
    {"substance": "Nonoxynol-9 [N-9]", "values": [
      {"measurement": "risk of sexual transmission of HIV-1", "value": "increase the risk of sexual transmission of HIV-1"}
    ]}
  ]
}
